Results from PubChem BioAssay AID179 (DTP/NCI, 2004).
“And” between values parts separate entries of the source, which are not always exact repeats. Equal values may be shown once. The source made the active and inactive calls.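 The calls were made as follows: active = compounds giving half or more protection of infected cells from virus-caused growth loss, again on retest; inactive = the rest.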 Where a SMILES comes first, the peptide text is derived from it. The star is where a group is joined. Cbz = O=C(OCc1ccccc1)*; Boc = CC(C)(C)OC(=O)*

System: CEM cells HIV-1 protection, formazan growth assay
Assay: NCI AIDS Antiviral Assay
Settings: for IC50: measured here: growth of uninfected CEM cells
Summary of the method: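 Five concentrations of each compound were applied to infected and uninfected human CEM cells. Protection from HIV-1 was judged from growth measured with a soluble formazan assay.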

Structure (SMILES)	EC50 [µM]	IC50	outcome
Cc1ccc(N(C(=O)Nc2ccc(F)c(Cl)c2)C2=NCC(C)S2)cc1 (stereo unspecified)	> 200	186 µM	–
O=S(=O)(SC1=NCCN1)c1ccc2ccccc2c1	22.9	29.5 µM	–
Cc1noc(C)c1C1=CCCCc2ccccc21	> 30.2	> 30.2 µM	–
c1ccc(-c2nnc(-c3nn(-c4ccccc4)c4nc5ccccc5nc34)o2)cc1	–	–	inactive
CCCC1(CCCNC(=O)c2ccccc2)OCc2ccccc2CO1	> 513	> 513 µM	–
CC1C(O)Oc2cc3c(cc2C1c1ccccc1O)OCO3 (stereo unspecified)	> 200	35.5 µM	–
COc1cc(O)c2c(=O)c3c(OC)c(O)ccc3oc2c1	> 200	56.2 µM	–
CN(C)Cc1ccccc1CCO	> 200	> 200 µM	–
COc1ccc(OC(C(=O)O)C(C)C)c2c1CCCC2=O (stereo unspecified)	–	–	inactive
COc1ccc(C(OCC2OC(n3ccc(NC(=O)c4ccccc4)nc3=O)C(O)C2O)(c2ccccc2)c2ccccc2)cc1 (stereo unspecified)	> 200	9.33 µM	–
O=S(=O)(O)c1ccc(O)c(N=Nc2ccc(/C=C/c3ccc(N=Nc4cc(S(=O)(=O)O)ccc4O)cc3S(=O)(=O)O)c(S(=O)(=O)O)c2)c1	> 200	126 µM	–
COc1cc2c(cc1O)CN1Cc3c(ccc(OC)c3O)C2C1 (stereo unspecified)	> 282	251 µM	–
CCOC(=O)OC(=S)N(C1CCCCC1)C1CCCCC1	> 200	97.7 µM	–
CC1(c2ccccc2)CCN(C2CC2)CO1 (stereo unspecified)	> 200	23.4 µM	–
C[N+](C)(N)c1nc(N)c(C#N)c(C#N)c1C#N	> 200	33.1 µM	–
CC(C)(C)c1ccc2c(c1)CNCCNCc1cc(C(C)(C)C)ccc1OCC1(CO2)COc2ccc(C(C)(C)C)cc2CNCCNCc2cc(C(C)(C)C)ccc2OC1	> 1.51	0.219 µM	–
CC(CCOc1c2ccoc2cc2oc(=O)ccc12)C1=CC(=O)C(C)(C)O1 (stereo unspecified)	> 200	> 200 µM	–
CCC(=O)N1C(=O)C(CC)(CC)C(=O)N1C(=O)CC	> 200	> 200 µM	–
CCCc1cc(=O)oc2c3c(cc(OC(C)CI)c12)O[C@H](C)[C@@H](C)C3=O (stereo partly specified)	> 87.1	21.4 µM	–
COC(=O)/C(C#N)=C1\NC(=O)CC(c2ccccc2)C1C#N (stereo unspecified)	> 200	57.5 µM	–
O=C(CN(Cc1ccccc1)Cc1ccccc1)N1CCc2c([nH]c3ccccc23)C1c1cccnc1 (stereo unspecified)	> 5.62	> 5.62 µM	–

Structure (SMILES)	EC50 [µM]	IC50	outcome
COc1c(Sc2ccccc2)cc(Sc2ccccc2)c2cccnc12	–	–	inactive
O=C1CSC(=Nc2ccccc2)N1c1ncccn1	> 47.9	> 47.9 µM	–
Nc1nccc(CCc2ccccc2)n1	> 36.3	> 36.3 µM	–
CC(=O)CC(OC(C)=O)C1=CCC2C(CC1C)OC(=O)C2C (stereo unspecified)	> 224	39.8 µM	–
OCC(O)COc1c(Cl)cc(Cl)cc1Cl (stereo unspecified)	> 251	> 251 µM	–
Cn1c(=O)nc2n(-c3cccc(Br)c3)c3ccccc3nc-2c1=O	–	–	inactive
O=C1c2cc(Cl)ccc2OC2CCON12 (stereo unspecified)	> 200	> 200 µM	–
O=C1CNC(=O)c2c(ncn2C2OC(CO)C(O)C2O)N1 (stereo unspecified)	> 214	> 214 µM	–
COc1ccc2c(-c3ccc(OCCN(C)C)cc3)c(Oc3ccccc3)c(=O)oc2c1	> 200	7.08 µM	–
O=C(CC1=Nc2nnc(-c3nnc4n3C(=O)C(CC(=O)C3CC3)=N4)n2C1=O)C1CC1	> 24.5	> 24.5 µM	–
CCN(CCCl)CCNc1c2ccccc2nc2ccc(OC)cc12	–	–	inactive
COc1ccc2nc3ccc(OC)cc3c(S(=O)CCCl)c2c1 (stereo unspecified)	> 200	3.63 µM	–
Cc1nnc2n1-c1ccc(Cl)cc1C(c1ccccc1)=[N+]([O-])C2	> 398	355 µM	–
CCC1=NC(N/N=C/c2ccco2)=N/C1=C\c1ccco1	> 200	110 µM	–
O=C1C2C3C=C4c5ccccc5N(c5ccccc5)C4(C2C(=O)N1c1ccc([N+](=O)[O-])cc1)[C@H]1C(=O)N(c2ccc([N+](=O)[O-])cc2)C(=O)[C@@H]31 (stereo partly specified)	> 11	> 11 µM	–
O=CN(SSN(C=O)C1CCCCC1)C1CCCCC1	–	–	inactive
O=c1sc2ccccc2n1CCSSCCn1c(=O)sc2ccccc21	> 200	9.12 µM	–
NS(=O)(=O)c1nnc(NSc2ccc([N+](=O)[O-])cc2)s1	> 200	46.8 µM	–
COC1/C=C\OC2(C)Oc3c(C)c(O)c4c(O)c(c(C=Nc5ccccc5C)c(O)c4c3C2=O)NC(=O)/C(C)=C\C=C/C(C)C(O)C(C)C(O)C(C)C(OC(C)=O)C1C (stereo unspecified)	> 200	29.5 µM	–
COC(=O)CCC(C)C1CCC2[C@@H]3CC[C@@H]4CC(CSC(C)=O)CC[C@]4(C)C3CC[C@]12C (stereo partly specified)	> 29.5	> 29.5 µM	–
Cc1cccc2c(NCCC[N+](C)(C)[O-])c3c([N+](=O)[O-])ccc(C)c3nc12	> 100	0.372 µM	–

Structure (SMILES)	EC50 [µM]	IC50	outcome
CC(C)=CCN1Cc2cccc3[nH]c(=S)n(c23)C[C@@H]1C	0.0302	1.74 µM	–
CC1(C)CC(=O)C2=C(C1)NC(SSC1=C(C#N)C(c3ccccc3)C3=C(CC(C)(C)CC3=O)N1)=C(C#N)C2c1ccccc1 (stereo unspecified)	> 112	15.5 µM	–
O=[N+]([O-])c1ccccc1Sc1ccc(Cl)cc1	> 135	38.9 µM	–
CCOc1ccc(NC(=O)C(=O)CC(=O)C2=C(C)Nc3ccccc3S2)cc1	> 64.6	> 64.6 µM	–
C(/Cc1ccc2c(c1)OCO2)=N\NC1=NCCCCN1	> 200	105 µM	–
c1ccc2c(c1)oc1cc3c(cc12)ncc1cccn13	> 200	> 200 µM	–
Cc1cc(C(O)(c2cc(C)c(O)c(C(=O)O)c2)c2cc(C)c(O)c(C(=O)O)c2)cc(C(=O)O)c1O	> 3.72	> 3.72 µM	–
CC(C)=Nn1cnc(C(=N)C#N)c1N	> 200	> 200 µM	–
COC(=O)CNC(=O)C(CC(C)C)NC(=O)C(CC(C)C)NC(=O)OC(C)(C)C (stereo not drawn) (Boc-Leu-Leu-Gly-OMe; configuration not given here)	–	–	inactive
COc1cc(N=Nc2c(O)c3ccccc3[nH]c2=O)c(OC)cc1N=Nc1ccccc1	> 100	> 100 µM	–
O=S(=O)(F)c1ccc(C[P+](c2ccccc2)(c2ccccc2)c2ccccc2)c(Cl)c1	> 200	45.7 µM	–
O=C(O)[C@H]1CCCN1C(=O)c1ccccc1SSc1ccccc1C(=O)N1CCC[C@H]1C(=O)O	> 200	> 200 µM	–
CCOC(=O)/C(C1=N[C@H](C(=O)OCC)CS1)=C(\C)O	> 631	> 631 µM	–
O=C1c2ccccc2-c2nnc(-c3ccccc3)cc21	> 100	8.32 µM	–
COc1cc2c(c3c1C1Oc4cc(OCc5ccccc5)c(O)cc4C1C(C)(C)O3)CCC(C)(C)O2 (stereo unspecified)	> 200	36.3 µM	–
O=C1CCC23CC(C=CC=C12)n1c(=O)n(-c2ccccc2)c(=O)n13 (stereo unspecified)	> 200	34.7 µM	–
C[C@]12CCCCC1(O)C[C@H](C(=O)O)CC2 (stereo partly specified)	–	–	inactive
C[C@@H](NC(=O)CNC(=O)OC(C)(C)C)C(=O)N[C@@H](Cc1ccccc1)C(=O)OCc1ccccc1 (HELM PEPTIDE1{[CC(C)(C)OC(=O)[*:2]].G.[dA].F.[c1ccc(CO[*:1])cc1]}$$$$V2.0)	> 200	97.7 µM	–
COc1ccc(C2CC(=O)c3c(O)cc(OC4OC(COC5OC(C)C(O)C(O)C5O)C(O)C(O)C4O)cc3O2)cc1O (stereo unspecified)	138	191 µM	–
CC(=O)NC(CCC(=O)c1ccc(Oc2ccccc2)cc1)C(=O)O (stereo unspecified)	> 200	> 200 µM	–
Cc1ccc(N=C2C(c3ccccc3)=C(SC3=C(c4ccccc4)C(=Nc4ccc(C)cc4)c4ccccc43)c3ccccc32)cc1	> 200	174 µM	–

Structure (SMILES)	EC50 [µM]	IC50	outcome
O=C(NC(C(F)(F)F)(C(F)(F)F)P(=O)(c1ccccc1)c1ccccc1)C(C(F)(F)F)C(F)(F)F	> 200	11.7 µM	–
NC(=O)NC1C(c2ccccc2)=NOC1C(N)=O (stereo unspecified)	> 200	> 200 µM	–
C=CC(C)(C)C1(CC(OC)OC)C(=O)N(C)c2ccccc21 (stereo unspecified)	> 200	> 200 µM	–
CC(=O)Nc1nnc(S(C)(=O)=O)s1	> 1120	851 µM	–
CCO[C@H]1OC(=O)[C@@H]2C(c3ccc([N+](=O)[O-])cc3)=NO[C@H]12	> 46.8	> 46.8 µM	–
CCOC(=O)c1cnc2ccc(C)cn2c1=O	–	–	inactive
O=C(NCc1ccccc1)/C(=C/c1ccccc1)NC(=O)c1ccccc1	> 200	> 200 µM	–
CCCCCCCCCCCCCC1=C(O)C(=O)C(CC2=C(O)C(=O)C(CCCCCCCCCCCCC)=C(O)C2=O)=C(O)C1=O	> 17	> 17 µM	–
O=c1c(-c2ccccc2)c2n(c3ccccc13)CCN2	> 200	> 200 µM	–
CCOC(=O)C1=C(O)c2ccccc2S(=O)(=O)N1C (tested in a mixture with another compound)	> 123	110 µM	–
Cc1cn(C2CC(NC(=O)N(C)O)C(CO)O2)c(=O)[nH]c1=O (stereo unspecified)	> 200	> 200 µM	–
CN(C)N(CCO)CCO	> 200	> 200 µM	–
CC12SC(C)(c3c[se]cc31)C1C(=O)N(c3ccccc3)C(=O)C12 (stereo unspecified)	–	–	inactive
CCOc1ccccc1NC(=O)CC1Sc2ccccc2NC1=O (stereo unspecified)	> 55	> 55 µM	–
Cc1cc(S(=O)(=O)Nc2nnc3c(Cl)cc(C(F)(F)F)cn23)c(S)cc1Cl	70.8	380 µM	–
COc1cccc(/C(C=O)=C(\Cl)c2ccc(OC)c(OC)c2)c1	> 21.9	11.5 µM	–
[O-][n+]1ccccc1SSc1cccc[n+]1[O-]	> 2	0.141 µM	–
O=C1N/C(=N\N=C\c2ccccc2)C(c2ccccc2)O1 (stereo unspecified)	> 200	33.9 µM	–
COC(=O)C(CC(C)C)NC(=O)C(CCCN=C(N)N)NC(=O)OCc1ccccc1 (stereo not drawn) (Cbz-Arg-Leu-OMe; configuration not given here)	> 200	> 200 µM	–
COc1cc(/C=C/C(=O)CC(=O)/C=C/c2ccc(O)c(OC)c2)ccc1O	> 200	19.1 µM and 75.9 µM	–
